Measurements as given in patent publication US9992994B2, “Agricultural and detergent compositions containing a tertiary amide as adjuvant or as surfactant” (Taminco BVBA, priority 2011, dated 2018).
Like-named read-outs stand apart in the source and are kept apart here.

Key:
[1] = 20° C., cited from earlier work
[2] = system: Black nightshade (Solanum nigrum L.; SOLNI); conditions: Dicamba DMA-salt, Banvel, 16 DAT
Protocol: Black nightshade (Solanum nigrum L.; SOLNI) was grown in a growth chamber under 14 h of light, at 18/12 (±0.5) ° C. (day/night) temperature, and in 70/80 (±5)% (day/night) relative humidity. Light was provided by high-pressure mercury lamps and fluorescent tubes to give 250 pmol m^−2 s^−1 at leaf level. The plants were grown in 11-cm-diam plastic pots filled with a mixture of sand and humic potting soil (1:2 by volume). The pots were placed on subirrigation matting, which was wetted daily with a half-strength nutrient solution. After emergence, the seedlings were thinned to one plant per pot for the efficacy experiments. Black nightshade was treated at the four-leaf stage. The fresh weights of the plants were measured 16 days after treatment (16 DAT).
The treatment solutions were applied with an air-pressured laboratory track sprayer having 1.2-mm nozzles fitted with a perforated (0.6 mm) whirling pin and delivering 200 L/ha at 303 kPa.
The experiment was conducted with four replicates per experiment according to a completely randomized design.

[3] = system: Wild oat (Avena fatua L.; AVEFA); assay: adjuvant for Fenoxaprop-P-ethyl test; type: in vivo; conditions: Puma EW, 21 DAT
Protocol: In this test the performance with Fenoxaprop-P-ethyl was looked at. Plant material. […] After emergence, the seedlings were thinned to four plants per pot for the efficacy experiments. The plants were treated at the three-leaf stage. The fresh weights of the plants were measured 21 days after treatment (21 DAT). […] The following herbicide was included in the treatment solutions: Fenoxaprop-P-ethyl, Puma EW formulation, 69 g a.i./L. […] Demineralized water was used as the carrier.

[4] = sub-optimal rate + N,N-bis(3-(dimethylamino)propyl)octanamide 0.25% (w/v)
[5] = sub-optimal rate, no adjuvant, average of four replicates

| Compound | log Kow ([1]; at pH 7) | Fresh Weight SOLNI (g) Herbicide + Adjuvant [2, 4] | Fresh weight SOLNI (g) Only herbicide [2, 5] | Fresh Weight Wild Oat (g) Herbicide + Compound [3, 4] | Fresh weight Wild Oat (g) Only herbicide [3, 5] | log Kow ([1]; no pH given) |
| --- | --- | --- | --- | --- | --- | --- |
| COc1c(Cl)ccc(Cl)c1C(=O)O [Dicamba] | −1.9 | 6.7 g | 10.8 g | – | – | – |
| CCOC(=O)[C@@H](C)Oc1ccc(Oc2nc3ccc(Cl)cc3o2)cc1 [Fenoxaprop-P-ethyl] | – | – | – | 1.4 g | 16.4 g | 4.3 |
